18 molecules from patent publication US20260001888A1, “PYRAZOLOPYRIMIDINE PDE9 INHIBITORS” (Merck Sharp & Dohme LLC, priority 2018, published 2026) can be followed below.

Each structure is given as a SMILES string.

Human PDE9 (PDE9A2), sequence (O76083 other isoform, or with tags, fused parts or gaps): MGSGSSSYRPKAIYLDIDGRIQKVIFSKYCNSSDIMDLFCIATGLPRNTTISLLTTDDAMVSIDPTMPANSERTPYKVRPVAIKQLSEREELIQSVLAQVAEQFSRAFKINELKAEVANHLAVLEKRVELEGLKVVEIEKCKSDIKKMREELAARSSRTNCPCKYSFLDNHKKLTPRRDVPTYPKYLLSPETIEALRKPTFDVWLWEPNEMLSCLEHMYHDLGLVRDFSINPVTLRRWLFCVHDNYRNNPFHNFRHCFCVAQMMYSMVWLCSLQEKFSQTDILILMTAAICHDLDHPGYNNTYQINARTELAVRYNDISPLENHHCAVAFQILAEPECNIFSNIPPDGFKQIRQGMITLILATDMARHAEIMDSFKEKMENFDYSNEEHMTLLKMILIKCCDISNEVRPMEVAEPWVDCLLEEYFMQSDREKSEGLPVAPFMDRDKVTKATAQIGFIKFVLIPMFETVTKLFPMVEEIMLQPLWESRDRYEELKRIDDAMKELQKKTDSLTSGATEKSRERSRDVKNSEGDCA

The target of the assay is Human PDE9 (PDE9A2) (Homo sapiens (Human), UniProt O76083). The experiment in a line: PDE9 IMAP fluorescence polarization (FP) inhibition assay. The assay is classed as biochemical. Particulars: apparent inhibition constant; human PDE9A2, FAM-cGMP substrate 50 nM, room temperature. The protocol:
The activity of the compounds in accordance with the present invention as PDE9 inhibitors may be readily determined without undue experimentation using a fluorescence polarization (FP) methodology that is well known in the art (Huang, W., et al., J. Biomol Screen, 2002, 7:215).
In a typical experiment the PDE9 inhibitory activity of the compounds of the present invention was determined in accordance with the following experimental method.
Human PDE9 (PDE9A2, GenBank Accession No. NM_001001567), full length with N-terminal GST tag, was purchased from BPS Bioscience. The fluorescence polarization assay for cyclic nucleotide phosphodiesterases was performed using an IMAP® FP kit supplied by Molecular Devices, Sunnyvale, CA (product #R8139). IMAP® technology has been applied previously to phosphodiesterase assays (Huang, W., et al., J. Biomol Screen, 2002, 7:215). Assays were performed at room temperature in 384-well microtiter plates with an incubation volume of 20.2 μL. Solutions of test compounds were prepared in DMSO and serially diluted with DMSO to yield 8 μL of each of 10 solutions differing by 3-fold in concentration, at 32 serial dilutions per plate. 100% inhibition is determined using a known PDE9 inhibitor, such as 1-(2-chlorophenyl)-6-[(2R)-3,3,3-trifluoro-2-methylpropyl]-1,5-dihydro-4H-pyrazolo[3,4-d]pyrimidine-4-one (BAY 73-6691) (Wunder et al, Mol. Pharmacol., 2005, 68 (6): 1775-81), (6-[(3S,4S)-4-methyl-1-(pyrimidin-2-ylmethyl) pyrrolidin-3-yl]-1-(tetrahydro-2H-pyran-4-yl)-1,5-dihydro-4H-pyrazolo[3,4-d]pyrimidin-4-one (PF-04447943) (Wager et al., ACS Chemical Neuroscience, 2010, 1:435-449). 0% of inhibition is determined by using DMSO (1% final concentrations). A Labcyte Echo 555 (Labcyte, Sunnyvale, CA) is used to dispense 200 nL from each well of the titration plate to the 384 well assay plate. Human PDE9A2 membrane preps were diluted to 1 ng/ml. […] PDE9 enzyme mix and compounds were mixed and incubated at room temperature for 30 min. Following which, FAMcGMP substrate was added, shaken and incubated for an additional 60 min at room temperature. The final concentration of human PDE9 membrane preparations were 0.5 ng/ml. The final concentration of FAM-cGMP was 50 nM. After the incubation period, the enzymatic reaction was stopped by addition of binding solution (IMAP-FP, Molecular Devices, comprised of 80% Solution A, 20% Solution B and a 1:600 dilution of binding reagent) to each well. The plates were shaken then incubated at room temperature for 1 h prior to determining the fluorescence polarization (mP) using a Perkin Elmer En Vision™ plate reader (Waltham, MA).
Fluorescence polarization (mP) was calculated from the parallel(S) and perpendicular (P) fluorescence of each sample well and the analogous values for the median control well, containing only substrate (So and Po), using the following equation: […]
Dose-inhibition profiles for each compound were characterized by fitting the mP data to a four-parameter equation given below. The apparent inhibition constant (KI), the maximum inhibition at the low plateau relative to “100% Inhibition Control” (Imax; e.g. 1=>same as this control), the minimum inhibition at the high plateau relative to the “0% Inhibition Control” (Imin, e.g. 0=>same as the no drug control) and the Hill slope (nH) are determined by a non-linear least squares fitting of the mP values as a function of dose of the compound using an in-house software based on the procedures described by Mosser et al., JALA, 2003, 8:54-63, using the following equation: […]
An apparent (Km) for FAM-labeled […] of 150 nM was determined in separate experiments through simultaneous variation of substrate and selected drug concentrations.
In general terms: In fluorescence polarisation assays a small probe gives low polarisation when free and higher when bound to something large.
Regarding `CCC(c1ncc(C(F)F)cn1)N(C)c1nc2c(c(C#N)nn2C(C)c2ccc(C(F)(F)F)nc2)c(=O)[nH]1` (single isomer, unassigned) [Example 20, 6-[1-[5-(difluoromethyl)pyrimidin-2-yl]propyl-methyl-amino]-4-oxo-1-[1-[6-(trifluoromethyl)-3-pyridyl]ethyl]-5H-pyrazolo[3,4-d]pyrimidine-3-carbonitrile], the Ki amounted to 1.57 nM. For `CC(C)C(c1ncccn1)N(C)c1nc2c(c(C#N)nn2C(C)c2ccc(C(F)(F)F)nc2)c(=O)[nH]1` (single isomer, unassigned) [Example 21, 6-[methyl-(2-methyl-1-pyrimidin-2-yl-propyl)amino]-4-oxo-1-[1-[6-(trifluoromethyl)-3-pyridyl]ethyl]-5H-pyrazolo[3,4-d]pyrimidine-3-carbonitrile], the Ki was determined as 15.2 nM. `CC(C)C(c1ncccn1)N(C)c1nc2c(c(C#N)nn2C(C)c2ccc(C(F)(F)F)nc2)c(=O)[nH]1` (single isomer, unassigned) [Example 22, 6-[methyl-(2-methyl-1-pyrimidin-2-yl-propyl)amino]-4-oxo-1-[1-[6-(trifluoromethyl)-3-pyridyl]ethyl]-5H-pyrazolo[3,4-d]pyrimidine-3-carbonitrile]: the Ki was found to be 6.5 nM.

Consider `CC(C)C(c1ncccn1)N(C)c1nc2c(c(C#N)nn2C(C)c2ccc(C(F)(F)F)nc2)c(=O)[nH]1` (single isomer, unassigned) [Example 23, 6-[methyl-(2-methyl-1-pyrimidin-2-yl-propyl)amino]-4-oxo-1-[1-[6-(trifluoromethyl)-3-pyridyl]ethyl]-5H-pyrazolo[3,4-d]pyrimidine-3-carbonitrile], for which the Ki stood at 0.6 nM. With `CC(C)C(c1ncccn1)N(C)c1nc2c(c(C#N)nn2C(C)c2ccc(C(F)(F)F)nc2)c(=O)[nH]1` (single isomer, unassigned) [Example 24, 6-[methyl-(2-methyl-1-pyrimidin-2-yl-propyl)amino]-4-oxo-1-[1-[6-(trifluoromethyl)-3-pyridyl]ethyl]-5H-pyrazolo[3,4-d]pyrimidine-3-carbonitrile] the figure was 69.2 nM; with `CC(c1ccc(C(F)(F)F)nc1)n1nc(C#N)c2c(=O)[nH]c(N(C)C(c3ncccn3)C3CC3)nc21` (single isomer, unassigned) [Example 25, 6-[[cyclopropyl(pyrimidin-2-yl)methyl]-methyl-amino]-4-oxo-1-[1-[6-(trifluoromethyl)-3-pyridyl]ethyl]-5H-pyrazolo[3,4-d]pyrimidine-3-carbonitrile], 4.08 nM. For `CC(c1ccc(C(F)(F)F)nc1)n1nc(C#N)c2c(=O)[nH]c(N(C)C(c3ncccn3)C3CC3)nc21` (single isomer, unassigned) [Example 26, 6-[[cyclopropyl(pyrimidin-2-yl)methyl]-methyl-amino]-4-oxo-1-[1-[6-(trifluoromethyl)-3-pyridyl]ethyl]-5H-pyrazolo[3,4-d]pyrimidine-3-carbonitrile] the value was 52.9 nM; for `CC(c1ccc(C(F)(F)F)nc1)n1nc(C#N)c2c(=O)[nH]c(N(C)C(c3ncccn3)C3CC3)nc21` (single isomer, unassigned) [Example 27, 6-[[cyclopropyl(pyrimidin-2-yl)methyl]-methyl-amino]-4-oxo-1-[1-[6-(trifluoromethyl)-3-pyridyl]ethyl]-5H-pyrazolo[3,4-d]pyrimidine-3-carbonitrile], 6.67 nM; for `CC(c1ccc(C(F)(F)F)nc1)n1nc(C#N)c2c(=O)[nH]c(N(C)C(c3ncccn3)C3CC3)nc21` (single isomer, unassigned) [Example 28, 6-[[cyclopropyl(pyrimidin-2-yl)methyl]-methyl-amino]-4-oxo-1-[1-[6-(trifluoromethyl)-3-pyridyl]ethyl]-5H-pyrazolo[3,4-d]pyrimidine-3-carbonitrile], 20.3 nM. With `CC(c1ccc(C(F)(F)F)nc1)n1nc(C#N)c2c(=O)[nH]c(N(C)C(c3ncccn3)C3CCC3)nc21` (single isomer, unassigned) [Example 29, 6-[[cyclobutyl(pyrimidin-2-yl)methyl]-methyl-amino]-4-oxo-1-[1-[6-(trifluoromethyl)-3-pyridyl]ethyl]-5H-pyrazolo[3,4-a]pyrimidine-3-carbonitrile] the figure was 8.96 nM. Regarding `CC(c1ccc(C(F)(F)F)nc1)n1nc(C#N)c2c(=O)[nH]c(N(C)C(c3ncccn3)C3CCC3)nc21` (single isomer, unassigned) [Example 30, 6-[[cyclobutyl(pyrimidin-2-yl)methyl]-methyl-amino]-4-oxo-1-[1-[6-(trifluoromethyl)-3-pyridyl]ethyl]-5H-pyrazolo[3,4-a]pyrimidine-3-carbonitrile], the Ki was 16.4 nM.

As for `CC(c1ccc(C(F)(F)F)nc1)n1nc(C#N)c2c(=O)[nH]c(N(C)C(c3ncccn3)C3CCC3)nc21` (single isomer, unassigned) [Example 31, 6-[[cyclobutyl(pyrimidin-2-yl)methyl]-methyl-amino]-4-oxo-1-[1-[6-(trifluoromethyl)-3-pyridyl]ethyl]-5H-pyrazolo[3,4-a]pyrimidine-3-carbonitrile], the Ki amounted to 1.2 nM. For `CCC(c1ccc(F)cn1)N(C)c1nc2c(c(C#N)nn2C(C)c2ccc(C(F)(F)F)nc2)c(=O)[nH]1` (single isomer, unassigned) [Example 33, 6-[1-(5-fluoro-2-pyridyl)propyl-methyl-amino]-4-oxo-1-[1-[6-(trifluoromethyl)-3-pyridyl]ethyl]-5H-pyrazolo[3,4-d]pyrimidine-3-carbonitrile] the value was 0.59 nM.

`CCC(c1ccc(F)cn1)N(C)c1nc2c(c(C#N)nn2C(C)c2ccc(C(F)(F)F)nc2)c(=O)[nH]1` (single isomer, unassigned) [Example 34, 6-[1-(5-fluoro-2-pyridyl)propyl-methyl-amino]-4-oxo-1-[1-[6-(trifluoromethyl)-3-pyridyl]ethyl]-5H-pyrazolo[3,4-d]pyrimidine-3-carbonitrile]: the Ki came to 0.16 nM. As for `CCC(c1ccc(F)cn1)N(C)c1nc2c(c(C#N)nn2C(C)c2ccc(C(F)(F)F)nc2)c(=O)[nH]1` (single isomer, unassigned) [Example 35, 6-[1-(5-fluoro-2-pyridyl)propyl-methyl-amino]-4-oxo-1-[1-[6-(trifluoromethyl)-3-pyridyl]ethyl]-5H-pyrazolo[3,4-d]pyrimidine-3-carbonitrile], the Ki turned out to be 7.12 nM. Regarding `CCC(c1ccc(F)cn1)N(C)c1nc2c(c(C#N)nn2C(C)c2ccc(C(F)(F)F)nc2)c(=O)[nH]1` (single isomer, unassigned) [Example 36, 6-[1-(5-fluoro-2-pyridyl)propyl-methyl-amino]-4-oxo-1-[1-[6-(trifluoromethyl)-3-pyridyl]ethyl]-5H-pyrazolo[3,4-d]pyrimidine-3-carbonitrile], the Ki is 19.9 nM. As to `CCC(c1ncc(F)cn1)N(C)c1nc2c(c(C#N)nn2C(C)C2CCOCC2)c(=O)[nH]1` (single isomer, unassigned) [Example 37, 6-[1-(5-fluoropyrimidin-2-yl)propyl-methyl-amino]-4-oxo-1-(1-tetrahydropyran-4-ylethyl)-5H-pyrazolo[3,4-d]pyrimidine-3-carbonitrile], the Ki worked out at 2.67 nM. For the molecule `CCC(c1ncc(F)cn1)N(C)c1nc2c(c(C#N)nn2C(C)C2CCOCC2)c(=O)[nH]1` (single isomer, unassigned) [Example 38, 6-[1-(5-fluoropyrimidin-2-yl)propyl-methyl-amino]-4-oxo-1-(1-tetrahydropyran-4-ylethyl)-5H-pyrazolo[3,4-d]pyrimidine-3-carbonitrile], the Ki worked out at 8.35 nM.
